According to patent publication US7157487B2, “Vla-4 inhibitors” (Daiichi Pharmaceutical Co., Ltd., priority 2000, dated 2007):

Legend:
[1] = biological target: T1, integrins haα4 and β1 (VLA-4) expressed on CHO cells (Homo sapiens, UniProt P05556+P13612); assay: In vitro Evaluation Test (1): binding of Eu3+-hVCAM-1 D1D7-IgG to CHO cells expressing integrins α4 and β1; settings: inhibition of Eu3+-hVCAM-1 D1D7-IgG binding to CHO cells expressing α4β1; Ki calculated from IC50
T1 construct: expressed in transfected cells; host or cells: CHO cells
Method in brief: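 CHO cells transduced with human α4 and β1 were grown for 2 days. They were incubated 1 h at room temperature with Eu3+-hVCAM-1 D1D7-IgG (diluted to 2 nM before addition) and compound, with or without 6% HSA, in HEPES pH 7.5 containing Ca2+, Mg2+ and 4 mM Mn2+. Time-resolved fluorescence gave IC50; Ki used a Scatchard-derived Kd (0.06–20 nM).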

[2] = Evaluation of oral bioavailability by mouse bioassay; type: in vivo; settings: 10 mg/kg oral, female Balb/C mice, serum 15 minutes after administration, read-out: Blood level
Procedure: A test compound was suspended or dissolved in a proper administration medium to give a concentration of 1 mg/ml. To 7 to 9 week old female Balb/C mice, 10 mg/kg of the resulting suspension or solution was orally administered. Fifteen minutes after the administration, blood was collected from the postcava under anesthesia with ether and the serum was separated from it. The concentration of each test compound was determined by estimating the serum level from a calibration curve obtained with VCAM-1/VLA-4 inhibitory activity as an index or measuring the concentration by using LC/MS/MS.

T1 sequence (P13612 34-1032): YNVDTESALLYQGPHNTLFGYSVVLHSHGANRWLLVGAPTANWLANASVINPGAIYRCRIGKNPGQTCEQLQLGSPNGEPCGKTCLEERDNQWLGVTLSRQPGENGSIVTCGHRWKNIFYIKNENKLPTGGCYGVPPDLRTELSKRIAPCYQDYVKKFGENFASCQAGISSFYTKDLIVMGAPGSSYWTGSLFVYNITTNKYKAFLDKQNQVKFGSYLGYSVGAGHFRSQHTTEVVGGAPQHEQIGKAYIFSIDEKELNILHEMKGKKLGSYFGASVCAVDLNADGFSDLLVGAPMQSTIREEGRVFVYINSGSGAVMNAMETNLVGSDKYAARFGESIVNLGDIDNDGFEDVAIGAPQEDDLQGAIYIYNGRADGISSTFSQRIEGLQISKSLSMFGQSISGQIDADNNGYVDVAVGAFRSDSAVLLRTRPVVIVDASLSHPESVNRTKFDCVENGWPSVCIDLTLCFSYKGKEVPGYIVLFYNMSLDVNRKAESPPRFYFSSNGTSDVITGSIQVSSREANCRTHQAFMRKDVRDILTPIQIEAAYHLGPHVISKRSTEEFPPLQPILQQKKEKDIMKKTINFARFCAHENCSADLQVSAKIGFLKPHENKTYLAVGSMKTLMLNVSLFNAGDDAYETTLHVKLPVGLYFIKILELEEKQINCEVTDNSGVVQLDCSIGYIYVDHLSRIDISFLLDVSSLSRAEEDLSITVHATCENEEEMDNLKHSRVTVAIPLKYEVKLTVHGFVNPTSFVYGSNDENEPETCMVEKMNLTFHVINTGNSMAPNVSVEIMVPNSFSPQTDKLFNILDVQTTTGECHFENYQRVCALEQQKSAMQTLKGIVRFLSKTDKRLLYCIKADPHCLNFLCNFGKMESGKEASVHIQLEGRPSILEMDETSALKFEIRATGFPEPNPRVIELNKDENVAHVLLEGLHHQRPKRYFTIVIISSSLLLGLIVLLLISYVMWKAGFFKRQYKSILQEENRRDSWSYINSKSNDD
T1 sequence (P05556 21-798): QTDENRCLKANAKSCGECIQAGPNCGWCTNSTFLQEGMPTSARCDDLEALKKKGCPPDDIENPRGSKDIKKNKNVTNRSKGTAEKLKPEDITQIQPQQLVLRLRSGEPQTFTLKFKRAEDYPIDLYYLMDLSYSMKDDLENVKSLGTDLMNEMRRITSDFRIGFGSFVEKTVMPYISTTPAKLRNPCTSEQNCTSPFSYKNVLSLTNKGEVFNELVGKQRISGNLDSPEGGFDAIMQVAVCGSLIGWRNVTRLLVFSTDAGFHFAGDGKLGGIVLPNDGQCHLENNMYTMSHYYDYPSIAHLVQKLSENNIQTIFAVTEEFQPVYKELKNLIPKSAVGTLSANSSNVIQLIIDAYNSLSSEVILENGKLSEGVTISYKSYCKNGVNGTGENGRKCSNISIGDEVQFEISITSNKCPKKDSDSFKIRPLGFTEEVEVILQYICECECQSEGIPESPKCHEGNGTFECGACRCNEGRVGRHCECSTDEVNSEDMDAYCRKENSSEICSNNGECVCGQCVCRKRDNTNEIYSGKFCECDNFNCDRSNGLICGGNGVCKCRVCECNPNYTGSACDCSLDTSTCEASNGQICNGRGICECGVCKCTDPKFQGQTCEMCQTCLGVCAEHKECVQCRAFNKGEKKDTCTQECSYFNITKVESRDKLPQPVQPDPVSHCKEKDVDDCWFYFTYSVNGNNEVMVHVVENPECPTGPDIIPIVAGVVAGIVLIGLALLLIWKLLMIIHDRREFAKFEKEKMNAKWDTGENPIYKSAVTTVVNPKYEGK

Row | Compound | Ki [1] [nM] | concentration at 15 min [2] [ng/mL]
1 | O=C(O)C1CCC(OC[C@@H]2C[C@H](F)CN2C(=O)Cc2ccc3nc(Nc4ccccc4Cl)oc3c2)CC1 (single isomer, unassigned) [24 (Isomer A)] | 14 | 2180
2 | O=C(O)C1CCC(OC[C@@H]2C[C@H](F)CN2C(=O)Cc2ccc3nc(Nc4ccccc4Br)oc3c2)CC1 (single isomer, unassigned) [25 (Isomer A)] | 18 | 1090
3 | O=C(O)C1CCC(OC[C@@H]2C[C@H](F)CN2C(=O)Cc2ccc(NC(=O)N3CCc4ccccc43)c(Cl)c2)CC1 (stereo partly drawn) [Example 36, 4-(1-(3-Chloro-4-(1-indolinylcarbonylamino)phenylacetyl)-(4S)-fluoro-(2S)-pyrrolidinylmethoxy)cyclohexanecarboxylic acid] | 1.5 | 1100
4 | O=C(O)C1CCC(OC[C@@H]2C[C@H](F)CN2C(=O)Cc2ccc3nc(Nc4ccccc4Cl)oc3c2F)CC1 (stereo partly drawn) [Example 37, 4-(1-(2-(2-Chlorophenyl)amino-7-fluoro-6-benzoxazolylacetyl)-(4S)-fluoro-(2S)-pyrrolidinylmethoxy)cyclohexanecarboxylic acid] | 6.9 | 3690
5 | Cn1cc(C(=O)Nc2ccc(CC(=O)N3C[C@@H](F)C[C@H]3COC3CCC(C(=O)O)CC3)cc2Cl)c2ccccc21 (stereo partly drawn) [Example 39, 4-(1-(3-Chloro-4-(1-methyl-3-indolylcarbonylamino)phenylacetyl)-(4S)-fluoro-(2S)-pyrrolidinylmethoxy)cyclohexanecarboxylic acid] | 2.1 | 5160
6 | Cc1ccc(Cl)cc1Nc1nc2ccc(CC(=O)N3C[C@@H](F)C[C@H]3CO[C@H]3CC[C@H](C(=O)O)CC3)c(F)c2o1 [Example 43, trans-4-(1-((2-(5-Chloro-2-methylphenylamino)-7-fluoro-6-benzoxazolyl)acetyl)-(4S)-fluoro-(2S)-pyrrolidinylmethoxy)cyclohexanecarboxylic acid] | 6 | 1190
7 | Cc1ccc(F)cc1Nc1nc2ccc(CC(=O)N3C[C@@H](F)C[C@H]3CO[C@H]3CC[C@H](C(=O)O)CC3)c(F)c2o1 [Example 44, trans-4-(1-((2-(5-Fluoro-2-methylphenylamino)-7-fluoro-6-benzoxazolyl)acetyl)-(4S)-fluoro-(2S)-pyrrolidinylmethoxy)cyclohexanecarboxylic acid] | 2 | 912
8 | O=C(Cc1ccc(Nc2nc3ccccc3o2)c(Cl)c1)N1C[C@@H](F)C[C@H]1CO[C@H]1CC[C@H](C(=O)O)CC1 [Example 49, trans-4-(1-(4-(2-benzoxazolyl)amino-3-chlorophenylacetyl)-(4S)-fluoro-(2S)-pyrrolidinylmethoxy)cyclohexanecarboxylic acid] | 4.4 | 508
9 | O=C(Cc1cc(Cl)c(Nc2nc3ccccc3o2)cc1F)N1C[C@@H](F)C[C@H]1CO[C@H]1CC[C@H](C(=O)O)CC1 [Example 55, trans-4-(1-(4-(2-Benzoxazolyl)amino-5-chloro-2-fluorophenylacetyl)-(4S)-fluoro-(2S)-pyrrolidinylmethoxy)cyclohexanecarboxylic acid] | 8.5 | 2030
10 | O=C(Cc1cc(Cl)c(Nc2nc3ccccc3s2)cc1F)N1C[C@@H](F)C[C@H]1CO[C@H]1CC[C@H](C(=O)O)CC1 [Example 61, trans-4-(1-(4-(2-Benzothiazolyl)amino-5-chloro-2-fluorophenylacetyl)-(4S)-fluoro-(2S)-pyrrolidinylmethoxy)cyclohexanecarboxylic acid] | 2.3 | 3320
11 | O=C(Cc1ccc(Nc2nc3cc(F)ccc3s2)c(Cl)c1)N1C[C@@H](F)C[C@H]1CO[C@H]1CC[C@H](C(=O)O)CC1 [Example 62, trans-4-(1-(3-Chloro-4-(5-fluoro-2-benzothiazolyl)aminophenylacetyl)-(4S)-fluoro-(2)-pyrrolidinylmethoxy)cyclohexanecarboxylic acid] | 3.4 | 3200
12 | O=C(Cc1cc(Cl)c(Nc2nc3cc(F)ccc3s2)cc1F)N1C[C@@H](F)C[C@H]1CO[C@H]1CC[C@H](C(=O)O)CC1 [Example 63, trans-4-(1-(5-Chloro-4-(5-fluoro-2-benzothiazolyl)amino-2-fluorophenylacetyl)-(4S)-fluoro-(2S)-pyrrolidinylmethoxy)cyclohexanecarboxylic acid] | 3.1 | 8550
13 | Cn1cc(C(=O)Nc2cc(F)c(CC(=O)N3C[C@@H](F)C[C@H]3CO[C@H]3CC[C@H](C(=O)O)CC3)cc2Cl)c2ccccc21 [Example 65, trans-4-(1-((5-Chloro-2-fluoro-4-((1-methyl-3-indolylcarbonyl)amino)phenyl)acetyl)-(4S)-fluoro-(2S)-pyrrolidinylmethoxy)cyclohexanecarboxylic acid] | 4 | 11500
14 | Cn1cc(C(=O)Nc2ccc(CC(=O)N3C[C@@H](F)C[C@H]3CO[C@H]3CC[C@H](C(=O)O)CC3)cc2F)c2ccccc21 [Example 70, trans-4-(1-(3-Fluoro-4-(1-methyl-3-indolyl)carbonylaminophenylacetyl)-(4S)-fluoro-(2S)-pyrrolidinylmethoxy)cyclohexanecarboxylic acid] | 7.2 | 2800
15 | Cn1cc(C(=O)Nc2cc(F)c(CC(=O)N3C[C@@H](F)C[C@H]3CO[C@H]3CC[C@H](C(=O)O)CC3)cc2F)c2ccccc21 [Example 71, trans-4-(1-(2,5-Difluoro-4-((1-methyl-1H-3-indolylcarbonyl)amino)phenylacetyl)-(4S)-fluoro-(2S)-pyrrolidinylmethoxy)cyclohexanecarboxylic acid] | 18 | 7340
16 | Cc1ccc(F)cc1Nc1nc2ccc(CC(=O)N3C[C@@H](F)C[C@H]3COc3ccc(C(=O)O)cc3)cc2o1 [Example 146, 4-(1-((2-(5-Fluoro-2-methylphenylamino)-6-benzoxazolyl)acetyl)-(4S)-fluoro-(2S)-pyrrolidinylmethoxy)benzoic acid] | 21 | 
17 | Cn1cc(C(=O)Nc2ccc(CC(=O)N3C[C@@H](F)C[C@H]3COc3ccc(C(=O)O)cc3)cc2Cl)c2ccccc21 [Example 147, 4-(1-((3-Chloro-4-((1-methyl-3-indolylcarbonyl)amino)phenyl)acetyl)-(4S)-fluoro-(2S)-pyrrolidinylmethoxy)benzoic acid] | 40 | 
18 | Cn1cc(C(=O)Nc2ccc(CC(=O)N3C[C@@H](F)C[C@H]3COc3ccc(C(=O)O)cn3)cc2Cl)c2ccccc21 [Example 150, 6-(1-(3-Chloro-4-(1-methyl-3-indolyl)carbonylaminophenylacetyl)-(4S)-fluoro-(2S)-pyrrolidinylmethoxy)nicotinic acid] | 10 | 
19 | Cc1ccccc1Nc1nc2ccc(CC(=O)N3CC=C[C@H]3COc3ccc(C(=O)O)cc3)cc2o1 [Example 151, 4-(3,4-Dehydro-1-((2-(2-methylphenylamino)-6-benzoxazolyl)acetyl)-(2S)-pyrrolidinylmethoxy)benzoic acid] | 37 | 
20 | COC[C@@H]1C[C@@H](O[C@H]2CC[C@H](C(=O)O)CC2)CN1C(=O)Cc1ccc2nc(Nc3cc(F)ccc3C)oc2c1F [Example 156, trans-4-(1-((2-(5-Fluoro-2-methylphenylamino)-7-fluoro-6-benzoxazolyl)acetyl)-(2S)-methoxymethyl-(4R)-pyrrolidinyloxy)cyclohexanecarboxylic acid] | 43 | 
21 | COC[C@@H]1C[C@@H](Oc2ccc(C(=O)O)cc2)CN1C(=O)Cc1ccc2nc(Nc3cc(F)ccc3C)oc2c1F [Example 159, 4-(1-((2-(5-Fluoro-2-methylphenylamino)-7-fluoro-6-benzoxazolyl)acetyl)-(2S)-methoxymethyl-(4R)-pyrrolidinyloxy)benzoic acid] | 47 | 
22 | Cc1ccc(F)cc1Nc1nc2ccc(CC(=O)N3CC[C@@H](O[C@H]4CC[C@H](C(=O)O)CC4)C3)c(F)c2o1 [Example 160, 4-(1-(2-(5-Fluoro-2-methylphenylamino)-7-fluoro-6-benzoxazolylacetyl)-(3R)-pyrrolidinyloxy)cyclohexanecarboxylic acid] | 61 | 
23 | Cn1cc(C(=O)Nc2cc(F)c(CC(=O)N3CC[C@@H](CO[C@H]4CC[C@H](C(=O)O)CC4)C3)cc2Cl)c2ccccc21 [Example 163, trans-4-(1-(5-Chloro-2-fluoro-4-(1-methyl-3-indolyl)carbonylaminophenylacetyl)-(3R)-pyrrolidinylmethyloxy)cyclohexanecarboxylic acid] | 39 | 
24 | COC[C@@H]1CC[C@@H](CO[C@H]2CC[C@H](C(=O)O)CC2)N1C(=O)Cc1ccc2nc(Nc3cc(F)ccc3C)oc2c1F [Example 167, trans-4-(1-((2-(5-Fluoro-2-methylphenylamino)-7-fluoro-6-benzoxazolyl)acetyl)-(5S)-methoxymethyl-(2S)-pyrrolidinylmethoxy)cyclohexanecarboxylic acid] | 0.87 | 
25 | COC[C@@H]1CC[C@@H](CO[C@H]2CC[C@H](C(=O)O)CC2)N1C(=O)Cc1cc(Cl)c(NC(=O)c2nn(C)c3ccccc23)cc1F [Example 168, trans-4-(1-((5-Chloro-2-fluoro-4-((1-methyl-3-indazolyl)carbonyl)aminophenyl)acetyl)-(5S)-methoxymethyl-(2S)-pyrrolidinylmethoxy)cyclohexanecarboxylic acid] | 59 | 
